Results on eight compounds are retold here after ChEMBL document CHEMBL1128866, “Isophthalic acid derivatives: amino acid surrogates for the inhibition of HIV-1 protease” (Bioorg Med Chem Lett, 1995).

In data set [1] the test system is CCRF-CEM. Kind of data set: Antiviral activity in HIV-infected CEM cells using whole cell assay. It counts as functional, cell-based. To be noted: Homo sapiens.
Data set [2] addresses Human immunodeficiency virus type 1 protease (Human immunodeficiency virus 1, UniProt Q72874). Description: Inhibitory activity against human immunodeficiency virus protease (HIVP) using protease inhibition assay.
The nature of data set [3]: Peak oral plasma concentration was determined in rats by oral administration. It counts as ADME, organism-based. More on the design: route oral. The conditions noted are these: rat.

Where only a bound is given, the exact number is not on record here.

In general, IC50 refers to the concentration that inhibits the measured activity by half. A higher IC50 goes with weaker potency. `CC(C)(C)NC(=O)[C@@H]1C[C@@H]2CCCC[C@@H]2CN1C[C@@H](O)[C@H](Cc1ccccc1)NC(=O)[C@H](CC(N)=O)NC(=O)c1ccc2ccccc2n1`: the IC50 in data set [1] was determined as 2 nM. For `CC(C)(C)NC(=O)c1ccccc1C[C@@H](O)[C@H](Cc1ccccc1)NC(=O)c1cccc(C(=O)N2CCc3ccccc3C2)c1`, 50 nM corresponded to half-maximal inhibition in data set [2] (IC50).

Broadly, the Cmax is the peak of the concentration-time curve. Compound `Cc1ccc(C(=O)N(C)Cc2ccccn2)cc1C(=O)N[C@@H](Cc1ccccc1)[C@H](O)CN1C[C@H]2CCCC[C@H]2C[C@H]1C(=O)NC(C)(C)C` returned a Cmax in data set [3] of 4400 nM. The IC50 in data set [2] came to 8.6 nM; in data set [1], 77 nM. On to `Cc1cc(C(=O)N[C@@H](Cc2ccccc2)[C@H](O)Cc2ccccc2C(=O)NC(C)(C)C)cc(C(=O)N2CCc3ccccc3C2)c1`, for which, in data set [2], the IC50 stood at 500 nM.

`Cc1ccc(C(=O)N[C@@H](Cc2ccccc2)[C@H](O)Cc2ccccc2C(=O)NC(C)(C)C)cc1C(=O)N1CCc2ccccc2C1`: half-maximal inhibition in data set [2] (IC50) required 670 nM. The compound `CC(C)(C)NC(=O)c1ccccc1C[C@@H](O)[C@H](Cc1ccccc1)NC(=O)[C@H](CC(N)=O)NC(=O)c1ccc2ccccc2n1` displayed a Cmax in data set [3] of less than 100 nM. For the same compound, in data set [1], the IC50 was determined as 27 nM. As to `Cc1ccc(C(=O)N2CCc3ccccc3C2)cc1C(=O)N[C@@H](Cc1ccccc1)[C@H](O)Cc1ccccc1C(=O)NC(C)(C)C`, the midpoint of inhibition in data set [2], the IC50, lay at 6.1 nM. In turn, `Cc1ccc(C(=O)N2CCc3ccccc3C2)cc1C(=O)N[C@@H](Cc1ccccc1)[C@H](O)CN1C[C@H]2CCCC[C@H]2C[C@H]1C(=O)NC(C)(C)C` came in with a Cmax in data set [3] of less than 100 nM. Also, the values for the IC50 in data set [2] and in data set [1] were 13.8 nM and 1400 nM, respectively.
